Assay results reported in patent US6716987B1, “Derivatives of benzofuran or benzodioxazole compounds” (Kyowa Hakko Kogyo Co., Ltd., priority 1995, dated 2004).
pIC50: −log10 of the molar value.

Columns and labels:
[1] = test system: histamine-induced bronchoconstriction; assay: Suppression of histamine-induced bronchoconstriction response in guinea pig; assay type: in vivo; settings: intravenous administration; histamine 10 μg/kg iv
Experimental: This test was carried out by a modified Konzett and Rossler method. Under anesthesia with urethane (1.2 g/kg, ip), male Hartley guinea pigs (body weight: 500 to 600 g) were fixed on plates by strings. After undertaking a tracheotomy, cannulae were inserted to the tracheae, right carotid arteries, and left cervical veins. The spontaneous respiration of the guinea pigs was stopped by the administration of gallamie (10 mg/kg) from the left cervical veins via the cannulae. The cannulae inserted into the tracheae were connected to a bronchospasm transducer (Ugo Basile) and a respirator (TB-101, Takashima-shoten, 60 to 70 strokes/minutes, output: 5 cc) and the air overflow volume was recorded by a polygraph (RM-45, Nippon Koden) to measure the amount of bronchoconstriction. For measuring blood pressure, the cannulae inserted in the right carotid arteries were connected to a blood-pressure transducer. Constant bronchoconstriction occurred when histamine (10 μg/kg, iv) was administered at 3 minutes intervals, and the induced bronchoconstriction was used as the control. A test compound was intravenously administered, and one minute later histamine (10 μg/kg, iv) was administered. The test compound was cumulatively administered at 5 minutes intervals, and the bronchoconstriction in control and that after the administration of the test compound was compared.

[2] = test system: cAMP-specific phosphodiesterase (PDE IV); assay: Inhibition of the PDE IV enzyme derived from a dog trachea; assay type: biochemical; settings: test compound 10^−6 M; PDE IV from dog tracheal smooth muscle; substrate cAMP 1 μM
Outline: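 Enzyme purified from dog tracheal smooth muscle; [3H]cAMP substrate at 1 μM final in 50 mM BES pH 7.2, 1 mM MgCl2, 0.1 mg/ml soybean trypsin inhibitor, 30° C for 10–30 min, 1.7% DMSO final. After HCl stop, product converted to adenosine by 5′-nucleotidase, separated on DEAE-Sephadex and scintillation-counted.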

[3] = test system: guinea pig bronchial smooth muscle; assay: Suppression of passive Schultz-Dale response in guinea pig bronchial smooth muscle; settings: Cavia porcellus; ovalbumin-induced constriction of passively sensitized guinea pig tracheal strips; read-out: IC50 (concentration causing 50% relaxation)
Experimental: For passive sensitization, rabbit anti-ovalbumin serum prepared by the method of Kohda et al. [Nichiyakurishi, 66, 237 (1970)] was peritoneally administered to male Hartley guinea pigs weighing 350 to 500 g, and 24 hours later the tracheae thereof were removed to be used for the experiment. Zig-zag strips were prepared from the tracheae in accordance with the method of Emmerson and Mackay [J. Pharm. Pharmacol., 31, 798 (1979)], and they were suspended in a Krebs-Henseleit solution with aeration of a mixture of 95% oxygen and 5% carbon dioxide at 37° C. After stabilizing for approximately one hour, ovalbumin, as the antigen, was added to the mixture (at a final concentration of […]), and the constriction of the muscle was recorded by a recorder (TYPE 3066; Yokokawa Hokushin Denki) via an isotonic transducer (TD-112S; Nippon Koden). A test compound was cumulatively added to the mixture after the constriction had reached the plateau, and the relaxation ratio was determined. The concentration (IC50) causing 50% relaxation was calculated by linear regression analysis.

[4] = molecular target: T1, phosphodiesterase 4A (Homo sapiens, UniProt P27815); assay: Recombinant human PDE4A assay; assay type: biochemical
T1 construct: made in house; host or cells: E. coli
T1 sequence (P27815 224-886 limits assumed): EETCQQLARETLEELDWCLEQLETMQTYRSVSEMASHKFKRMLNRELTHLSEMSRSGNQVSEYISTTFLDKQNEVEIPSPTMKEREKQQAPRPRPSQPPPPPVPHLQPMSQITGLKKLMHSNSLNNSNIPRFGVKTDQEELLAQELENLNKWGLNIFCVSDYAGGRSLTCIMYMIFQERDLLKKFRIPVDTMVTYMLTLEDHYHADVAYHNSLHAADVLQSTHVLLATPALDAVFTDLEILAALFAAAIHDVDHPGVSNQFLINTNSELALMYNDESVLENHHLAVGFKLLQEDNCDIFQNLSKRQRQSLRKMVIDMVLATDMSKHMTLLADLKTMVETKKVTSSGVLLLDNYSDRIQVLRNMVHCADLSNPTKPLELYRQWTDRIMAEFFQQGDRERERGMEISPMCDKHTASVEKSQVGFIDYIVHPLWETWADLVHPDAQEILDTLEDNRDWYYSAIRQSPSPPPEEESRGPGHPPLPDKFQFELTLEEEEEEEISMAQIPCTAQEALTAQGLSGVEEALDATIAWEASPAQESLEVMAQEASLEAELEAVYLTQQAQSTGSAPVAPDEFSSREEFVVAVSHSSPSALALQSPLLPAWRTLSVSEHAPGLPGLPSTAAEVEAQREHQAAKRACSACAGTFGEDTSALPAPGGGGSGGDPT

[5] = test system: anaphylactic bronchoconstriction; assay: Effect on anaphylactic bronchoconstriction response; assay type: in vivo, guinea pig; settings: oral administration one hour before the antigen; from AUC suppression ratio
Experimental: For passive sensitization, 1 ml of rabbit anti-ovalbumine serum was peritoneally administered to male Hartley guinea pigs, and 16 to 24 hours later, ovalbumine was intravenously administered as the antigen. The induced anaphylactic bronchoconstriction was measured by the modified Konzett and Rossler method. Each of the tracheal cannulae was completely closed at the end of the measurement and the measured constriction was defined as the maximum constriction. Changes in the constriction were measured as percentage in the maximum constriction. The area under the curve (AUC) indicating the strength of the response was calculated by an image analyzer (MCID system, Imaging Research Company). The test compound was orally administered one hour before the antigen administration, and the ID50 value of each drug was calculated from the AUC suppression ratio by linear regression analysis.

[6] = test system: TNF α production; assay: Suppression effect on TNF α production in the LPS induced mouse sepsis model; assay type: in vivo; settings: Method A; dose 10 mg/kg orally 90 min before LPS; serum TNF α
Experimental: Lipopolysaccharide (LPS, DIFCO Laboratories) was dissolved in physiological saline to make a final concentration of 0.2 mg/ml. The resulting solution was administered intravenously to the tail of Balb/c male mice (7-week-old) (Charls River Japan Co.) at 200 μl per 20 g body weight of 5 to 6 mice/group. One hour after administration, blood was drawn from a fundus oculi vein of each mouse to obtain serum. […] The concentration of TNF a in serum was measured by enzyme-linked immunosorbent assay (ELISA method) as follows: […] anti-mouse TNF a monoclonal antibody (Pharmingen Inc.) diluted with a phosphate buffer solution (PBS) was added to a 96-well microtiter plate (Nalge Nunc International immuno-plate <MaxiSorp=) at […]; allowed to stand at 4° C. for 12 hours for coating; mixed with […] of a phosphate buffer solution containing 1% bovine serum albumin (BSA) (1% BSA-PBS); allowed to stand at room temperature for 1 hour to block the non-specific binding; washed with phosphate buffer solution; mixed with […] of the subject serum diluted two-fold with 1% BSA-PBS; and allowed to stand at room temperature for 2 hours. Furthermore, recombinant mouse TNF α (Genzyme Corp.) diluted with 1% BSA-PBS was similarly treated and used as a standard substance. These plates were washed three times with PBS (0.05% Tween-PBS) containing 0.05% polyoxyethylenesorbitan monolaurate (Tween 20, Wako Pure Chemical Industries, Ltd.), mixed with […] of biotin-labelled anti-mouse TNF α monoclonal antibody (Method A: Pharmingen Inc.; Method B: Genzyme Corp) diluted with 1% BSA-PBS to make a concentration of 1 mg/ml, allowed to stand at room temperature for 1 hour, washed three times with 0.05% Tween-PBS, mixed with […] of horseradish peroxidase avidin D (Vector Laboratories Inc.) diluted four-thousand-fold with 1% BSA-PBS, and allowed to stand at room temperature for 30 min. Finally, these plates were washed three times with 0.05% Tween-PBS, and mixed with […] of 3,3′,5,5′-tetramethylbenzidine. After color development, the reaction was stopped by adding […] of 10% sulfuric acid solution, and then, the absorbance at 450 nm was measured. The concentration of TNF α in serum was calculated from a calibration curve.
The rate of suppression of each test compound on TNF α production was obtained from the following formula:
Suppression rate=(A−B)/A,
wherein A is the TNF α concentration of the control group and B is the TNF α concentration of the experimental group.
In the above formula, the TNF α concentration of the control group is defined as the value obtained in the absence of the test compound (0.5% methyl cellulose solution alone).
Employed as the reference compounds were 7-methoxy-4-[1-oxo-2-(4-pyridyl)ethyl]-spiro[2,3-dihydrobenzofuran-2,1′-cyclopentane] hydrochloride (disclosed in Example 100 of Japanese Patent Laid-Open No. 8-836624 and hereinafter referred to as Compound RA) having the formula (RA) and 2-benzoyl-4-(3,5-dichloro-4-pyridyl)aminocarbonyl)-7-methoxybenzofuran (disclosed in Example 35 of Japanese Patent Laid-Open No. 8-534708 and hereinafter referred to as Compound RB) having the formula (RB): [drawing 660]

[7] = test system: Sunkus murinus; assay: Effect on vomiting induction in male Sunkus murinus; assay type: in vivo; settings: dose 10 mg/kg i.p., observed for 1 hour after administration
Experimental: Five to fifteen male Sunkus murinus per group weighing approximately 60 g were used for the test. According to the method of Matsumoto, et. al. [Japan J. Pharmacol., 48, 303 (1988)], Sunkus murinus were placed separately into metal wire cages (width 15 cm×length 21 cm×height 15 cm). Each sample of the test compound was suspened in a 0.5% Tween 80 physiological saline solution and administered intraperitoneally (i.p.) at a dose of 10 ml/kg. […] In the group that was administered the test-compound, the results are represented as the number of vomiting animals/the number of experimental animals. Compound RA was employed as a reference compound.

[8] = test system: neutrophil and eosinophil accumulation; assay: Effect on neutrophil and eosinophil accumulation in BN rats; assay type: in vivo, rat; settings: dose of 30 mg/kg p.o.; BALF 24 hours after antigen
Experimental: The Howell et al's method (Pulmonary Pharmacology, 8, […] (1995)) was partly modified and used for the active sensitization and the antigen exposure.
Oval albumin (OA) (1 mg) and aluminium hydroxide (200 mg) were subcutaneously injected into male Brown-Norway rats (6 week-age, Nippon Charles River), to which were intra abdominally administered dead cells of Bordetella pertussis for the active sensitization of the rats. After 14 days, the rats were put into a plastic chamber (30×50×30 cm), and left to inspire a 1% (w/v) OA solution for 10 minutes for antigen induction. For the inspiration, used was an ultrasonic nebulizer (NE-U12, by Omron, Tokyo).
The test compound was suspended in 0.5% methyl cellulose, and orally administered (p.o.) to the rats one hour prior to the antigen challenge. The group of the rats to which 0.5% methyl cellulose was administered and which were left to inspire OA was referred to as OA Group, while the group of the rats which were left to inspire a physiological saline solution in place of OA was referred to as Saline Group.
After 24 hours from the antigen induction, bronchoalveolar lavage (BAL) was performed. […] Then, the number of all leukocytes existing in the resulting suspension was counted, using an automatic leukocyte counter (Celltac α MEK-6158, by Nippon Koden, Tokyo). […]

**Q.** For COc1ccc(/C=C/c2ccncc2)c2c1OC(C)(C)C2 [Compound 68, (E)-7-Methoxy-2,2-dimethyl-4-[2-(4-pyridyl)ethenyl]-2,3-dihydrobenzofuran], which “ID50 value (50% inhibitory dose)” value [1] is on record?
**A.** Its value is 0.076 mg/kg.

**Q.** And the melting point?
**A.** The melting point was 145 to 149 °C.

**Q.** And the “Enzyme Inhibitory Activity (%, 10^−6 M)” value [2]?
**A.** Its value is 80%.

**Q.** And the pIC50 [3]?
**A.** Its pIC50 is 5.80.

**Q.** Which “Enzyme Inhibitory Activity (%, 10^−7 M)” value [4] does the source give for COc1ccc(C(=O)Cc2ccncc2)c2c1OC1(CCCC1)C2.Cl [Compound 100, 7-Methoxy-4-[1-oxo-2-(4-pyridyl)ethyl]-spiro[2,3-dihydrobenzofuran-2,1′-cyclopentane].hydrochloride] here?
**A.** The value was 99%.

**Q.** And the “ID50 value (50% inhibitory dose)” value [5]?
**A.** Its value is 0.53 mg/kg.

**Q.** For COc1ccc(C(=O)Cc2c(Cl)cncc2Cl)c2cc(C(=O)NCCN3CCOCC3)oc12 [Compound 216, N-(2-morpholinoethyl)-4-[2-(3,5-dichloropyridin-4-yl)-1-oxo]ethyl-7-methoxybenzofuran-2-carboxamide], which “Suppression rate (%)” value [6] is on record?
**A.** Its value is 75%.

**Q.** And the “Number of vomiting animals/Number of experimental animals” value [7]?
**A.** Its value is 0/5.

**Q.** And the “inhibiting activity against eosinophils” value [8]?
**A.** Its value is 100%.

**Q.** And the “inhibiting activity against neutrophils” value [8]?
**A.** The value was 92%.
